{"source": "paper PMC4809600", "about": "“The Influence of Chronic Wound Extracts on Inflammatory Cytokine and Histatin Stability” (PLoS ONE, 2016)", "key": {"[1]": {"test": "Stability in chronic wound extracts (CWE), capillary zone electrophoresis", "assay_type": "in vitro ADME, human", "details": "37°C, CZE; for Percentage intact, CWE 2h / Percentage intact, CWE 4h / Percentage intact, CWE 8h / Percentage intact, CWE 16h / Percentage intact, CWE 24h / Percentage intact, CWE 48h / Percentage intact, CWE 72h / Percentage intact, CWE 96h: 1 mg/ml in PBS mixed 1:1 with CWE (1 mg/ml protein, pool of 5 donors) in PBS, UV 200 nm, ratio to imidazole", "source_text": "(§1) Debridement tissue was obtained from chronic ulcers of 15 patients with therapy resistant (arterio-venous) leg ulcers, according to procedures described earlier. In brief, moist, easily removable debridement material, essentially blood free, was collected from the ulcer surface and divided equally into two different solutions: (i) PBS (B. Braun, Melsungen, Germany), (ii) PBS with protease inhibitor cocktail (PIC) (1:100; v/v) (Sigma-Aldrich, Steinheim, Germany). The mixtures were gently shaken for 1 h at 4°C to elute proteins and centrifuged; the supernatants were stored at -80°C. Total protein content of the supernatant was measured using the BioRad Protein Assay (BioRad Laboratories, Hercules, California, USA) essentially as described by the supplier. Samples were diluted to 1 mg/ml protein and extracts of five different donors were pooled; three different pools of five donors were used in all experiments. The samples are referred to as chronic wound extracts (CWE).\n(§2) To determine the stability of the different peptides in CWE, histatins and cytokines were dissolved in PBS at 1 mg/ml. Histatins and cytokines were incubated in a 1:1 ratio with (i) PBS, (ii) CWE in PBS, or (iii) CWE in PBS containing PIC, in a total volume of 25 μl. Imidazole (Sigma-Aldrich) was added as an internal standard, with a final concentration of 100 μg/ml. The mixtures were incubated at 37°C, and samples were taken at 0, 24, 48, 72 and 96 h. For histatins containing mixtures, additional samples were taken after 2, 4, 8 and 16 h of incubation.\n(§3) The samples were analyzed with a BioFocus 2000 capillary zone electrophoresis system (Bio-Rad Laboratories, Hercules, CA, USA) equipped with an uncoated fused-silica capillary of internal diameter 50 μm and a length of 24 cm. Samples were loaded by pressure injection (5 psi/sec). Separation was performed at 10 kV (cathode at the detector side) at 20°C using 0.1 M phosphate buffer (pH 2.5) as electrolyte and monitored continuously at 200 nm. Peaks were quantified with the BioFocus Integrator software. In order to quantify the percentage of intact peptides remaining after incubation with CWE, the ratios of histatins, rhIL-6 or rhCXCL8 to internal standard was set at 100% at 0h, and the ratios at the other incubation time points were related to this."}, "[2]": {"test": "Stability in CWE with protease inhibitor cocktail (PIC), capillary zone electrophoresis", "assay_type": "in vitro ADME, human", "details": "37°C, CZE, 0 h = 100%; for Percentage intact, CWE + PIC 2h / Percentage intact, CWE + PIC 4h / Percentage intact, CWE + PIC 8h / Percentage intact, CWE + PIC 16h / Percentage intact, CWE + PIC 24h / Percentage intact, CWE + PIC 48h / Percentage intact, CWE + PIC 72h / Percentage intact, CWE + PIC 96h: 1 mg/ml in PBS mixed 1:1 with CWE (1 mg/ml protein, pool of 5 donors) in PBS containing PIC (final 1:140 v/v), ratio to imidazole", "source_text": "as §1, §2, §3"}}, "note": "Where no end group is shown, it is not given here."}
{"sequence": "SHREFPFYGDYGS [mad-Hst1]", "values": [{"measurement": "Percentage intact, CWE 2h", "setting": "[1]; 0 h = 100%, experiment 1 of 3", "value": 91.7, "unit": "%"}, {"measurement": "Percentage intact, CWE 2h", "setting": "[1]; 0 h = 100%, experiment 2 of 3", "value": 99.5769, "unit": "%"}, {"measurement": "Percentage intact, CWE 2h", "setting": "[1]; 0 h = 100%, experiment 3 of 3", "value": 98.2054, "unit": "%"}, {"measurement": "Percentage intact, CWE 4h", "setting": "[1]; 0 h = 100%, experiment 1 of 3", "value": 84.5, "unit": "%"}, {"measurement": "Percentage intact, CWE 4h", "setting": "[1]; 0 h = 100%, experiment 2 of 3", "value": 100.271, "unit": "%"}, {"measurement": "Percentage intact, CWE 4h", "setting": "[1]; 0 h = 100%, experiment 3 of 3", "value": 91.5097, "unit": "%"}, {"measurement": "Percentage intact, CWE 8h", "setting": "[1]; 8 h, 0 h = 100%, experiment 1 of 3", "value": 75.7, "unit": "%"}, {"measurement": "Percentage intact, CWE 8h", "setting": "[1]; 8 h, 0 h = 100%, experiment 2 of 3", "value": 86.2011, "unit": "%"}, {"measurement": "Percentage intact, CWE 8h", "setting": "[1]; 8 h, 0 h = 100%, experiment 3 of 3", "value": 78.6965, "unit": "%"}, {"measurement": "Percentage intact, CWE 16h", "setting": "[1]; 0 h = 100%, experiment 1 of 3", "value": 69.2, "unit": "%"}, {"measurement": "Percentage intact, CWE 16h", "setting": "[1]; 0 h = 100%, experiment 2 of 3", "value": 65.943, "unit": "%"}, {"measurement": "Percentage intact, CWE 16h", "setting": "[1]; 0 h = 100%, experiment 3 of 3", "value": 57.6063, "unit": "%"}, {"measurement": "Percentage intact, CWE 24h", "setting": "[1]; 24 h, 0 h = 100%, experiment 1 of 3", "value": 42.5808, "unit": "%"}, {"measurement": "Percentage intact, CWE 24h", "setting": "[1]; 24 h, 0 h = 100%, experiment 2 of 3", "value": 50.836, "unit": "%"}, {"measurement": "Percentage intact, CWE 24h", "setting": "[1]; 24 h, 0 h = 100%, experiment 3 of 3", "value": 32.6705, "unit": "%"}, {"measurement": "Percentage intact, CWE 48h", "setting": "[1]; 0 h = 100%, experiment 1 of 3", "value": 12.2019, "unit": "%"}, {"measurement": "Percentage intact, CWE 48h", "setting": "[1]; 0 h = 100%, experiment 2 of 3", "value": 19.3697, "unit": "%"}, {"measurement": "Percentage intact, CWE 48h", "setting": "[1]; 0 h = 100%, experiment 3 of 3", "value": 24.0021, "unit": "%"}, {"measurement": "Percentage intact, CWE 72h", "setting": "[1]; 0 h = 100%, experiment 1 of 3", "value": 1.49, "unit": "%"}, {"measurement": "Percentage intact, CWE 72h", "setting": "[1]; 0 h = 100%, experiment 2 of 3", "value": 2.89, "unit": "%"}, {"measurement": "Percentage intact, CWE 72h", "setting": "[1]; 0 h = 100%, experiment 3 of 3", "value": 2.789, "unit": "%"}, {"measurement": "Percentage intact, CWE 96h", "setting": "[1]; 0 h = 100%, experiment 1 of 3", "value": 0.001, "unit": "%"}, {"measurement": "Percentage intact, CWE 96h", "setting": "[1]; 0 h = 100%, experiment 2 of 3", "value": 0.001, "unit": "%"}, {"measurement": "Percentage intact, CWE 96h", "setting": "[1]; 0 h = 100%, experiment 3 of 3", "value": 1.322, "unit": "%"}, {"measurement": "remaining at 8 h, 0.5 mg/ml", "setting": "[1]; human, chronic wound extracts (CWE), 1 mg/ml in PBS mixed 1:1 with CWE (1 mg/ml protein, pools of 5 donors), 8 h, 0 h = 100%, mean of 3 independent experiments, read-out: Original amount of peptide remaining intact after 8 h in CWE", "value": 80, "unit": "%"}, {"measurement": "remaining at 24 h, 0.5 mg/ml", "setting": "[1]; human, chronic wound extracts (CWE), 1 mg/ml in PBS mixed 1:1 with CWE (1 mg/ml protein, pools of 5 donors), 24 h, 0 h = 100%, mean of 3 independent experiments, read-out: Original amount of peptide remaining intact after 24 h in CWE", "value": 42, "unit": "%"}, {"measurement": "metabolised at 8 h, 0.5 mg/ml", "setting": "[1]; human, chronic wound extracts (CWE), incubation with chronic wound extracts, 8 h, read-out: Breakdown (degradation) in CWE in 8 h", "value": "~20", "unit": "%"}, {"measurement": "Percentage intact, CWE + PIC 2h", "setting": "[2]; experiment 1 of 3", "value": 100, "unit": "%"}, {"measurement": "Percentage intact, CWE + PIC 2h", "setting": "[2]; experiment 2 of 3", "value": 98.3314, "unit": "%"}, {"measurement": "Percentage intact, CWE + PIC 2h", "setting": "[2]; experiment 3 of 3", "value": 98.9861, "unit": "%"}, {"measurement": "Percentage intact, CWE + PIC 4h", "setting": "[2]; experiment 1 of 3", "value": 97.1353, "unit": "%"}, {"measurement": "Percentage intact, CWE + PIC 4h", "setting": "[2]; experiment 2 of 3", "value": 95.8953, "unit": "%"}, {"measurement": "Percentage intact, CWE + PIC 4h", "setting": "[2]; experiment 3 of 3", "value": 98.3062, "unit": "%"}, {"measurement": "Percentage intact, CWE + PIC 8h", "setting": "[2]; experiment 1 of 3", "value": 96.5658, "unit": "%"}, {"measurement": "Percentage intact, CWE + PIC 8h", "setting": "[2]; experiment 2 of 3", "value": 92.2482, "unit": "%"}, {"measurement": "Percentage intact, CWE + PIC 8h", "setting": "[2]; experiment 3 of 3", "value": 95.5781, "unit": "%"}, {"measurement": "Percentage intact, CWE + PIC 16h", "setting": "[2]; experiment 1 of 3", "value": 90.0803, "unit": "%"}, {"measurement": "Percentage intact, CWE + PIC 16h", "setting": "[2]; experiment 2 of 3", "value": 88.9151, "unit": "%"}, {"measurement": "Percentage intact, CWE + PIC 16h", "setting": "[2]; experiment 3 of 3", "value": 87.9983, "unit": "%"}, {"measurement": "Percentage intact, CWE + PIC 24h", "setting": "[2]; 24 h, experiment 1 of 3", "value": 92.5228, "unit": "%"}, {"measurement": "Percentage intact, CWE + PIC 24h", "setting": "[2]; 24 h, experiment 2 of 3", "value": 84.6363, "unit": "%"}, {"measurement": "Percentage intact, CWE + PIC 24h", "setting": "[2]; 24 h, experiment 3 of 3", "value": 83.1367, "unit": "%"}, {"measurement": "Percentage intact, CWE + PIC 48h", "setting": "[2]; experiment 1 of 3", "value": 76.9205, "unit": "%"}, {"measurement": "Percentage intact, CWE + PIC 48h", "setting": "[2]; experiment 2 of 3", "value": 78.1025, "unit": "%"}, {"measurement": "Percentage intact, CWE + PIC 48h", "setting": "[2]; experiment 3 of 3", "value": 83.127, "unit": "%"}, {"measurement": "Percentage intact, CWE + PIC 72h", "setting": "[2]; experiment 1 of 3", "value": 74.0975, "unit": "%"}, {"measurement": "Percentage intact, CWE + PIC 72h", "setting": "[2]; experiment 2 of 3", "value": 73.8197, "unit": "%"}, {"measurement": "Percentage intact, CWE + PIC 72h", "setting": "[2]; experiment 3 of 3", "value": 80.0857, "unit": "%"}, {"measurement": "Percentage intact, CWE + PIC 96h", "setting": "[2]; experiment 1 of 3", "value": 76.9035, "unit": "%"}, {"measurement": "Percentage intact, CWE + PIC 96h", "setting": "[2]; experiment 2 of 3", "value": 71.7331, "unit": "%"}, {"measurement": "Percentage intact, CWE + PIC 96h", "setting": "[2]; experiment 3 of 3", "value": 77.8206, "unit": "%"}, {"measurement": "remaining at 24 h, 0.5 mg/ml", "setting": "[2]; human, with protease inhibitor cocktail (PIC), CWE with protease inhibitor cocktail (final 1:140 v/v), 24 h, mean of 3 independent experiments, read-out: Remaining fraction of intact peptide after 24 h in CWE + PIC", "value": 87, "unit": "%"}]}
